{"source": "paper PMC10295897", "about": "“A Novel MDM2-Binding Chalcone Induces Apoptosis of Oral Squamous Cell Carcinoma” (Biomedicines, 2023)", "key": {"SCC9 cells [1]": {"system": "SCC9 cells", "assay": "MTT cell viability assay, SCC9 oral cancer cells", "assay_type": "cell-based, human", "conditions": "for IC50: Homo sapiens, SCC-9, 48 h, MTT", "protocol": "(§1) Human SCC-4, SCC-9, and SCC-25 cells derived from a human oral tongue SCC (squamous cell carcinoma) were obtained from the ATCC (CRL-1624, CRL-1629, and CRL-1628, respectively) and maintained in 1:1 DMEM/F12 (Dulbecco’s modified Eagle medium and Ham’s F12 medium; Gibco (Thermo Fisher, Waltham, MA, USA)) supplemented with 10% (v/v) FBS (fetal bovine serum; Invitrogen, Thermo Fisher, Waltham, MA, USA) and 400 ng/mL hydrocortisone (Sigma-Aldrich Co., St. Louis, MO, USA). Primary normal human gingival fibroblasts were obtained from the ATCC (PCS-201-018; HGF) and maintained in DMEM supplemented with 10% (v/v) FBS and were used in a maximum of six passages. The cells were grown in a humidified environment containing 5% CO2 at 37 °C. For all biological experiments, the compounds and control nutlin 3a were solubilized in 100% DMSO (all Sigma-Aldrich) to a final concentration of 10 mM. Carboplatin stock was prepared in water (Fauldcarbo®; LibbsFarmacêutica, São Paulo, SP, Brazil) and was used as a standard anticancer compound.\n(§2) The viability of SCC cell lines, HT-29, HCT-116, HEP2G and primary human fibroblast cells was evaluated using the MTT assay as in [26]. Briefly, the cells were grown in duplicates in 96-well plates (5 × 10^3 cells/well) until confluence. Then, the medium was removed, fresh medium was added, and the cells were returned to the incubator in the presence of different compounds. DMSO at the same concentrations was used as a 100% cell viability control. After 48 h, the cells were incubated with 5 mg/mL MTT reagent (3-(4,5-dimethyl-2-thiazolyl)-2,5-diphenyl-2-H-tetrazolium bromide) (Sigma-Aldrich Co., St. Louis, MO, USA) for 3.5 h. After that, formazan crystals were dissolved in MTT solvent solution (DMSO/methanol 1:1 v/v), and the absorbance at 560 nm was evaluated using an EPOCH microplate spectrophotometer (BioTek Instruments, Winooski, VT, USA) with the background absorbance at 670 nm subtracted. Each of the six compounds was tested at six or seven different concentrations, ranging from 0.3 µM to 200 µM in cancer cell lines (SCC-4, SCC-9 and SCC-25) and 0.3 µM to 200 µM in primary normal human gingival fibroblasts. Controls (carboplatin, nutlin 3a) were tested at six or seven different concentrations ranging from 0.05 µM to 1000 µM in cancer cells and normal cells, depending on the compound.\n(§3) The data are presented as means ± SD. IC values for the MTT assays were obtained by nonlinear regression using the […] 5.0 program (Intuitive Software for Science, San Diego, CA, USA) from at least three independent experiments. A dose–response (inhibitor) vs. response curve using the least squares method was used to determine the IC50, SD, and R^2 of the data. The selectivity index was calculated as SI = IC50 of the compound in normal oral fibroblast cells/IC50 of the same compound for each cancer cell line (SCC-4, SCC-9, SCC-25, HCT-116, HT29 and HEP2G), and the mean was calculated when indicated.\nInitially, the six chalcones (1a–f) were submitted to the MTT assay to evaluate their cytotoxicity. The assay was performed using the oral cancer cell line SCC9, and the results were analyzed by a non-linear regression curve to determine the value of the half maximal inhibitory concentration (IC50). As controls, known chemotherapeutic agents were used, namely carboplatin, routinely used in the treatment of oral cancer, and doxorubicin, widely used for other types of cancers."}, "HEP2G (hepatocarcinoma)": {"system": "HEP2G (hepatocarcinoma)", "assay": "MTT cell viability assay, HEP2G", "assay_type": "cell-based", "conditions": "48 h", "protocol": "as §2, with “Each of the six compounds was tested at six or seven different concentrations, ranging from 0.3 µM to 200 µM in cancer cell lines (SCC-4, SCC-9 and SCC-25) and 0.3 µM to 200 µM in primary normal human gingival fibroblasts. Controls (carboplatin, nutlin 3a) were tested at six or seven different concentrations ranging from 0.05 µM to 1000 µM in cancer cells and normal cells, depending on the compound.” left out\nThe data are presented as means ± SD. […] The selectivity index was calculated as SI = IC50 of the compound in normal oral fibroblast cells/IC50 of the same compound for each cancer cell line (SCC-4, SCC-9, SCC-25, HCT-116, HT29 and HEP2G), and the mean was calculated when indicated."}, "SCC9 cells [2]": {"system": "SCC9 cells", "assay": "Cell cycle and SubG1 analysis (PI flow cytometry)", "assay_type": "cell-based, human", "conditions": "SCC9, 2 × IC50, 48 h, PI staining", "protocol": "To evaluate the action of compound 1f on the cell cycle and DNA fragmentation, SCC9 cell line cells were plated in a 6-well plate (5 × 10^5 cells/well). After 48 h of treatment, the cells were trypsinized and stained with propidium iodide (75 µM) in the presence of NP-40. The DNA content was analyzed by collecting 10,000 events using a FACScalibur flow cytometer. The data were analyzed using CellQuest (BD Biosciences, Franklin Lakes, NJ, USA) and FlowJo (Tree Star Inc., Ashland, OR, USA) software as in [34]."}, "SCC4 cells": {"system": "SCC4 cells", "assay": "MTT cell viability assay, SCC4 cells", "assay_type": "cell-based, human", "protocol": "as §1, §2, §3"}, "SCC25 cells": {"system": "SCC25 cells", "assay": "MTT cell viability assay, SCC25 cells", "assay_type": "cell-based, human", "protocol": "as §1, §2, §3"}, "[3]": {"system": "Primary Gingival Fibroblast (HGF)", "assay": "MTT cell viability assay, primary normal gingival fibroblasts", "assay_type": "cell-based, human", "conditions": "Homo sapiens, Fibroblast, 48 h", "protocol": "as §1, §2, §3"}}, "note": "Where two headings read alike, the source gives them in different places.", "data": [{"smiles": "Cc1cccc(C)c1-n1cc(/C=C/C(=O)c2ccccc2N)nn1", "note": "[1f, (E)-1-(2-Aminophenyl)-3-(1-(2,6-dimethylphenyl)-1H-1,2,3-triazol-4-yl)prop-2-en-1-one]", "values": [{"measurement": "IC50", "setting": "SCC9 cells [1]; 48 h, read-out: SCC9 IC50", "result": 3.87, "unit": "µM"}, {"measurement": "IC50", "setting": "SCC9 cells [1]; SCC9, 48 h, read-out: IC50", "result": 3.87, "unit": "µM"}, {"measurement": "SCC9 S.I.", "setting": "SCC9 cells [1]; selective index = IC50 HGF / IC50 SCC9", "result": 7.63}, {"measurement": "IC50", "setting": "HEP2G (hepatocarcinoma)", "result": 39.4, "unit": "µM"}, {"measurement": "cells in G2/M phase", "setting": "SCC9 cells [2]", "result": 44.0, "unit": "%"}, {"measurement": "fragmentation of DNA (Sub-G1 DNA-content)", "setting": "SCC9 cells [2]", "result": 23.3, "unit": "%"}, {"measurement": "IC50", "setting": "SCC4 cells; Homo sapiens, SCC-4, 48 h, MTT", "result": 4.73, "unit": "µM"}, {"measurement": "SCC4 S.I.", "setting": "SCC4 cells; selective index = IC50 HGF / IC50 SCC4", "result": 6.25}, {"measurement": "IC50", "setting": "SCC25 cells; Homo sapiens, SCC-25, 48 h, MTT", "result": 5.03, "unit": "µM"}, {"measurement": "SCC25 S.I.", "setting": "SCC25 cells; selective index = IC50 HGF / IC50 SCC25", "result": 5.88}, {"measurement": "IC50", "setting": "[3]", "result": 29.6, "unit": "µM"}]}]}
